Legend:
[1] = Differential scanning calorimetry (DSC), glass transition temperature; format: physicochemical
Excerpt: Differential Scanning Calorimetry (DSC):
(§1) The compound (3) is excellent in heat resistance.
The compound is excellent in heat resistance.

[2] = Solubility test in heated toluene; format: physicochemical
Procedure: 500 mL of heated toluene was needed to dissolve 1 g of the compound (2), but 50 mL of heated toluene was needed to dissolve 1 g of the compound (3).
500 mL of heated toluene was needed to dissolve 1 g of the compound (2), but 50 mL of heated toluene was needed to dissolve 1 g of the compound (4).

[3] = Vacuum evaporation temperature test with HPLC of boat residual; format: physicochemical; details: for purity of residual on the vacuum evaporation boat after vacuum evaporation / purity of residual on the vacuum evaporation boat before vacuum evaporation: HPLC; for purity of residual on the vacuum evaporation boat after vacuum evaporation: after vacuum evaporation (thermal stability); for temperature needed to obtain an evaporation rate of 5 Å/second: vacuum evaporation
Procedure: (Vacuum Evaporation Temperature Test)
(§2) The residual on the vacuum evaporation boat before and after vacuum evaporation of the compound (3) was analyzed by high performance liquid chromatography, showing that the residual on the vacuum evaporation boat before and after vacuum evaporation was in fact found to have a purity of 100.00%.
(§3) In contrast, the compound (2) starts decomposition at a temperature of 412° C. as shown by the TG/DTA measurement. Since the temperature is close to the above-mentioned vacuum evaporation temperature (415° C.), it is expected that the compound (2) is accompanied by thermal decomposition at the vacuum evaporation temperature.

[4] = Thermogravimetric measurement/differential thermal analysis (TG/DTA); format: physicochemical
Procedure: Thermogravimetric Measurement/Differential Thermal Analysis (TG/DTA):
as §1, §2, §3
The compound (4) is excellent in heat resistance.

[5] = Cyclic voltammetry (CV); format: physicochemical; details: for stability in repetition: repeated oxidation-reduction
[6] = prior art, JP-A-2004-155754; cited from earlier work

Structure (SMILES)	glass transition temperature (Tg) [1]	heated toluene needed to dissolve 1 g of the compound [2] [mL]	purity of residual on the vacuum evaporation boat after vacuum evaporation [3] [%]	purity of residual on the vacuum evaporation boat before vacuum evaporation [3] [%]	temperature needed to obtain an evaporation rate of 5 Å/second [3] [°C]	temperature at which decomposition starts [4] [°C]	oxidation potential [5]	reversibility of oxidation-reduction process [5]	stability in repetition [5]	decomposition temperature [4] [°C]	glass transition temperature [6] [°C]
Cc1ccc(-c2ccc(N(c3ccc(C)cc3)c3cc(N(c4ccc(C)cc4)c4ccc(-c5ccc(C)cc5)cc4)cc(N(c4ccc(C)cc4)c4ccc(-c5ccc(C)cc5)cc4)c3)cc2)cc1 [compound (1), 1,3,5-tris(N-(4′-methyl-4-biphenylyl)-N-(4-methylphenyl)amino)benzene, reference compound]	103 °C										
Cc1ccc(-c2ccc(N(c3ccc(-c4ccc(C)cc4)cc3)c3cc(N(c4ccc(-c5ccc(C)cc5)cc4)c4ccc(-c5ccc(C)cc5)cc4)cc(N(c4ccc(-c5ccc(C)cc5)cc4)c4ccc(-c5ccc(C)cc5)cc4)c3)cc2)cc1 [compound (2), 1,3,5-tris(N,N-bis(4′-methyl-4-biphenylyl)amino)benzene, reference compound]	no glass transition temperature	500	95.87	99.03	415	412					
Cc1ccc(-c2ccc(N(c3ccc(-c4ccc(C)cc4)cc3)c3cc(N(c4ccc(C)cc4)c4ccc(C)cc4)cc(N(c4ccc(-c5ccc(C)cc5)cc4)c4ccc(-c5ccc(C)cc5)cc4)c3)cc2)cc1 [compound (3), N,N,N′,N′-tetrakis(4′-methyl-4-biphenylyl)-N″,N″-bis(4-methylphenyl)benzene-1,3,5-triamine]	179 °C	50	100.00	100.00	350	430	0.52 V (vs. Ag/Ag^+)	excellent	good	478	
Cc1ccc(N(c2ccc(C)cc2)c2cc(N(c3ccc(-c4ccccc4)cc3)c3ccc(-c4ccccc4)cc3)cc(N(c3ccc(-c4ccccc4)cc3)c3ccc(-c4ccccc4)cc3)c2)cc1 [compound (4), N,N,N′,N′-tetrakis(4-biphenylyl)-N″,N″-bis(4-methylphenyl)benzene-1,3,5-triamine]	133 °C	50	99.64	99.30	340	498	0.54 V (vs. Ag/Ag^+)	excellent	good	498	
Cc1ccc(N(c2ccc(-c3ccccc3)cc2)c2cc(N(c3ccc(C)cc3)c3ccc(-c4ccccc4)cc3)cc(N(c3ccc(C)cc3)c3ccc(-c4ccccc4)cc3)c2)cc1 [p-MTPBAB, 1,3,5-tris(N-(p-methylphenyl)-N-(4-biphenylyl)amino)benzene]											98
Cc1ccc(N(c2cc(N(c3ccc(C)cc3)c3cccc4ccccc34)cc(N(c3ccc(C)cc3)c3cccc4ccccc34)c2)c2cccc3ccccc23)cc1 [p-MTPNAB, 1,3,5-tris(N-(p-methylphenyl)-N-(1-naphthyl))-amino benzene]											87

Source: patent US8029920B2, “1,3,5-tris(diarylamino)benzenes and use thereof” (Bando Chemical Industries, Ltd, priority 2006, dated 2011)
